In US12616759B2, “Uses of labeled HSP90 inhibitors” (Sloan-Kettering Institute for Cancer Research, priority 2011, dated 2026):

How the values were obtained:
[1] = test system: FL5.12 mAKT-transfected cells; assay: apoptosis in mAKT-transfected FL5.12 cells; type: cell-based
Text: FL5.12 was derived as an interleukin-3 (IL-3)-dependent cell line with a functional JAK/STAT pathway and it has characteristic features of an early lymphocytic progenitor. Both the parental cells and the transfected cells express moderate-levels of active AKT and STAT5, as evidenced by AKT phosphorylation on Ser473 and STAT5 phosphorylation on Tyr694, respectively. The level of p-STAT5 but not p-AKT is dependent on the presence of IL-3. Introduction of a constitutively activated, myristoylated form of AKT (mAKT) under the control of a doxycycline (DOX)-inducible promoter further allows for the regulation of p-AKT levels in these cells. All together, these cells are a good isogenic model to evaluate the dependence of HSP90 inhibitor apoptotic sensitivity on activated AKT and STAT5-pathways.
Cells: Kasumi-1, SKNO-1, MOLM-13, MO-91, HEL, HL-60, THP-1, MV4-11 were grown in RPMI media supplemented with 10 mM HEPES, 4.5 g/L glucose, 1.5 g/L sodium bicarbonate, 1 mM sodium pyruvate, 10% FBS, and 1% penicillin/streptomycin. The stable transfectants of FL5.12 were previously described (18-Karnauskas 2003). In brief, for the generation of FL5.mAKT the myristylated AKT was cloned in the doxycycline inducible vector pRevTRE (Clontech) (this clone is designated mAKT). As a control, cell were transfected with vector alone (this clone is designated Vector). For generation of FL5.mAkt.Bcl-xL, the human Bcl-xL cDNA was cloned into the EcoRI site of the pBabePuro vector, and transfected into FL5.mAkt3 as described (18) (this clone is designated mAKT.Bcl-xL). These lines were cultured as described previously using DME-HG media supplemented with 10 mM HEPES, 10% FBS media containing 1 mg/ml Geneticin (G418) (Sigma #G9516) and 1 or 2 ng/mL of IL-3 (RD Systems #403 ML).
(§1) Apoptosis Assay: Cells were treated for 24, 48 or 72 h with vehicle (DMSO) or inhibitors as indicated. Following staining with Acridine Orange and Ethidium Bromide (1:1 mix of 100 µg/ml), cells were visualized with a fluorescent microscope (Zeiss Axiovert 40 CFL) and counted. Percentage of apoptotic cells was determined from 200-300 cells counted in each group. The percentage of apoptotic cells was calculated as: % Apoptotic cells=(total number of cells with apoptotic nuclei/total number of cells counted)×100.
Western blot: Cells were grown to 60-70% confluence and treated with inhibitor or vehicle for the indicated times. Protein lysates were prepared in 50 mM Tris pH 7.4, 150 mM NaCl and 1% NP-40 lysis buffer. Protein concentrations were measured using the BCA kit (Pierce) according to the manufacturer's instructions. Protein lysates (10-100 μg) were resolved by SDS-PAGE, transferred onto nitrocellulose membrane and incubated with the indicated primary antibodies. […]

[2] = test system: AML cell lines; assay: apoptosis in AML cell lines, acridine orange/ethidium bromide; type: cell-based, human
Description: as §1

[3] = test system: HSP90; assay: concomitant HSP90-streptavidin binding in live K562 cells; type: cell-based; details: for HSP90-streptavidin binding with K562 cells: live cells
Text: Having shown that some of the molecules bind concomitantly to HSP90 and streptavidin, we next investigated whether this can similarly be accomplished in live cells.

[4] = test system: HSP90; assay: fluorescence polarization HSP90 binding assay using SKBr3 cancer cell lysate; details: fluorescence polarization
[5] = test system: HSP90; assay: concomitant binding to HSP90 and streptavidin, K562 lysate; details: 100 μM; for HSP90-streptavidin binding with K562 lysate: streptavidin beads, overnight; for band at approximately 90 kDa, concomitant binding to HSP90 and streptavidin: K562 lysate, SDS-PAGE
Description: Having shown that each of the prepared biotinylated molecules retain good affinity to HSP90 we next wanted to determine whether the chain length was sufficient to maintain concomitant binding to HSP90 and streptavidin. […] Following sufficient washing to remove any unbound material, the remaining bead pellet was analyzed by SDS-PAGE. The gel was washed and stained with coomasie blue for 1 h.

[6] = test system: lung and bone metastases; assay: response of breast cancer patient to STA9090 by CT and FDG-PET; type: in vivo, human; details: triple-negative breast cancer patient
Description: FIGS. 28A, 28B, 28C, and 28D. A triple-negative breast cancer patient was imaged with ^124I-PU-H71 PET. At 20 min post-injection, uptake is noted in a lung mass (left arrow), and a bone lesion (right arrow) FIG. 28A, but at 24 h uptake is seen only in the lung lesion FIG. 28B. Both the lung and bone tumors are confirmed by CT and FDG-scans FIG. 28C. The patient started treatment with the HSP90 inhibitor STA-9090.
In another aspect of the present invention, patients who are identified as being candidates for HSP90 therapy are treated with a pharmaceutically effective amount of an HSP90 inhibitor. We have determined that cancer patients that are determined to be candidates to HSP90 inhibition therapy respond highly favorably to HSP90 inhibition therapy. If a patient has multiple tumors, then only those tumors with a sufficient avidity for the radiolabeled HSP90 inhibitor are expected to respond to HSP90 inhibition therapy. […] Similar results were obtained in patients with lymphoma, pancreatic cancer and neuroblastoma patients.

Row | Compound | EC50 [4] | HSP90-streptavidin binding with K562 lysate [5] | band at approximately 90 kDa, concomitant binding to HSP90 and streptavidin [5] | HSP90-streptavidin binding with K562 cells ([3]; 100 μM, 4 h) | binding in live K562 cells ([3]; 100 μM, 4 h) | other results
1 | O=c1[nH]c2ccccc2n1C1CCN(Cc2ccc(-c3nc4cc5[nH]cnc5cc4nc3-c3ccccc3)cc2)CC1 [AKTi, reference compound] |  |  |  |  |  | apoptotic cells ([1]; AKT activity increased by DOX): 30%; apoptotic cells ([1]; without DOX): 15-20%; effect on apoptosis ([2]; HEL cells in culture): little to no effect
2 | CC(C)c1cc(-c2n[nH]c(=O)n2-c2ccc3c(ccn3C)c2)c(O)cc1O [STA9090] |  |  |  |  |  | tumor response [6]: early partial response was demonstrated by FDG PET-CT studies in the lung mass but not in the spinal lesion; tumor response ([6]; listed as STA-9090): the lung but not the bone lesion is remarkably reduced in size
3 | CC(C)N(CCCn1c(Sc2cc3c(cc2I)OCO3)nc2c(N)ncnc21)C(=O)CCCCCNC(=O)CCCC[C@@H]1SC[C@@H]2NC(=O)N[C@@H]21 [PU-H71-biotin7] | 72.8 nM | No | did not show a band at 90 kDa | No |  | 
4 | CC(C)N(CCCn1c(Sc2cc3c(cc2I)OCO3)nc2c(N)ncnc21)C(=O)CCCC[C@@H]1SC[C@@H]2NC(=O)N[C@@H]21 [PU-H71-biotin2] | 154 nM | No | did not show a band at 90 kDa | No |  | 
5 | COc1cccc(-c2cc(=O)c3ccccc3o2)c1N [MEKi, reference compound] |  |  |  |  |  | induction of apoptosis ([2]; 24, 48 and 72 h): Modest or little induction of apoptosis
6 | CC(C)N(CCCn1c(Sc2cc3c(cc2I)OCO3)nc2c(N)ncnc21)C(=O)CCCCCNC(=O)CCCCCNC(=O)CCCC[C@@H]1SC[C@@H]2NC(=O)N[C@@H]21 [PU-H71-biotin8] | 76.9 nM | Yes | show a band at approximately 90 kDa | Yes | are able to permeate the cell membrane | 
7 | Nc1ncnc2c1nc(Sc1cc3c(cc1I)OCO3)n2CCCNC(=O)CCCCCNC(=O)CCCCCNC(=O)CCCC[C@@H]1SC[C@@H]2NC(=O)N[C@@H]21 [PU-H71-biotin5] | 31.4 nM | Yes | show a band at approximately 90 kDa | Yes | are able to permeate the cell membrane | 

More lines, main results first:

Row | EC50 [4] | HSP90-streptavidin binding with K562 lysate [5] | band at approximately 90 kDa, concomitant binding to HSP90 and streptavidin [5] | Compound | HSP90-streptavidin binding with K562 cells ([3]; 100 μM, 4 h) | binding in live K562 cells ([3]; 100 μM, 4 h) | other results
8 | 44.3 nM | No | did not show a band at 90 kDa | Nc1ncnc2c1nc(Sc1cc3c(cc1I)OCO3)n2CCCNC(=O)CCCC[C@@H]1SC[C@@H]2NC(=O)N[C@@H]21 [PU-H71-biotin3] | No |  | 
9 | 58.9 nM | Yes | show a band at approximately 90 kDa | Nc1ncnc2c1nc(Sc1cc3c(cc1I)OCO3)n2CCCNCCOCCOCCOCCNC(=O)CCCC[C@@H]1SC[C@@H]2NC(=O)N[C@@H]21 [PU-H71-biotin] | No | failed to maintain binding in live cells | 
10 | 110 nM | Yes | show a band at approximately 90 kDa | CC(C)N(CCCn1c(Sc2cc3c(cc2I)OCO3)nc2c(N)ncnc21)C(=O)CCOCCOCCOCCOCCNC(=O)CCCC[C@@H]1SC[C@@H]2NC(=O)N[C@@H]21 [PU-H71-biotin9] | Yes | are able to permeate the cell membrane | binding in live K562 cells ([3]; 10 μM): maintain good binding; band at approximately 90 kDa ([3]; lowest concentration 1 μM): a faint band is still present
11 | 34.8 nM | No | did not show a band at 90 kDa | Nc1ncnc2c1nc(Sc1cc3c(cc1I)OCO3)n2CCCNC(=O)CCCCCNC(=O)CCCC[C@@H]1SC[C@@H]2NC(=O)N[C@@H]21 [PU-H71-biotin4] | No |  | 
12 | 66.2 nM | Yes | show a band at approximately 90 kDa | Nc1ncnc2c1nc(Sc1cc3c(cc1I)OCO3)n2CCCNC(=O)CCOCCOCCOCCOCCNC(=O)CCCC[C@@H]1SC[C@@H]2NC(=O)N[C@@H]21 [PU-H71-biotin6] | Yes | are able to permeate the cell membrane | band at approximately 90 kDa ([3]; 0.5 μM): still shows a faint band; binding in live K562 cells ([3]; 10 μM): maintain good binding; band at approximately 90 kDa ([3]; lowest concentration 1 μM): a faint band is still present
